These results are taken from patent US20240002437A1, “COMPOSITIONS AND METHODS OF TREATING INFLAMMATORY LUNG DISEASES” (priority 2020, published 2024).

Assay [1] has as its system eNOS phosphorylation at T495. Put plainly: Western blot of pT495-eNOS in PAEC. The assay is classed as cell-based, ovine. Conditions: PMA 100 nM, 10, 30 and 60 minutes. As to the method: (§1) Primary cultures of ovine pulmonary arterial endothelial cells (PAEC) were isolated as described previously (L. K. Kelly, Am J Physiol Lung Cell Mol Physiol, 286(5), L984-91 (2004)). Briefly, cells were maintained in Dulbecco's modified Eagle medium (DMEM) supplemented with 10% fetal calf serum (Hyclone, Logan, UT), antibiotics/antimycotic (500 IU Penicillin, 500 μg/ml Streptomycin, 1.25 μg/ml Amphotericin B; MediaTech, Herndon, VA) at 37° C. in a humidified atmosphere with 5% CO2 and 95% air. Cells were used for experiments between passages 9-14, seeded at ˜50% confluence, and utilized when fully confluent.
Protein extracts were prepared using lysis buffer (50 mM Tris-HCl, pH 7.6, 0.5% Triton X-100, 20% glycerol) containing HALT™ protease inhibitor cocktail (Pierce Laboratories, Rockford, IL). The extracts were then subjected to centrifugation (15,000 g for 15 min at 4° C.). Supernatant fractions were assayed for protein concentration using the Bradford reagent (Bio-Rad, Richmond, CA) then used for Western blot analyses. Protein extracts (25-50 μg) were separated on Long-Life 4-20% Tris-SDS-Hepes gels and electrophoretically transferred to IMMUNO-BLOT™ PVDF membrane (Bio-Rad Laboratories, Hercules, CA) Immunoblotting was then carried out using the appropriate antibodies in Tris-base buffered saline with 0.1% Tween 20 and 5% nonfat milk. After washing, the membranes were probed with horseradish peroxidase-conjugated goat antiserum to rabbit or mouse. Reactive bands were visualized using chemiluminescence (Super Signal West Femto; Pierce, Rockford, IL) on a LI-COR Odyssey image station (Lincoln, NE). Bands were quantified using LI-COR Image Station software. Loading was normalized by reprobing the membranes with an antibody specific to β-actin.

For assay [2], the system named is mitochondrial redistribution of eNOS. Put plainly: Immunofluorescent microscopy of eNOS mitochondrial redistribution in PAEC. Type of assay: cell-based, ovine. The note with it: PMA. The method, then: as §1
PAEC were grown on cover glass for three days after reaching 100% confluence, and fixed with 4% paraformaldehyde (Thermo Fisher Scientific) for 30 min, permeabilized with 100% cold methanol at −20° C. for 5 min Cell then blocked with 1% BSA for 1 hour, and later incubated with first antibody overnight at 4° C. then secondary antibody at room temperature for 1 hour. Finally, cells were mounted on microscope slides using ProLong Glass Antifade Mountant, (Invitrogen, Carlsbad, CA, Cat #P36980). […] The images were analyzed with ImagePro Plus 7.0 (W. Casavan, Microscopy Today, 11(6), 48-50 (2003)) or ImageJ software to evaluate the colocalization of fluorescent.

For a further assay, the system named is NOS-derived superoxide. The assay is described as follows: NOS-derived superoxide by EPR (eNOS uncoupling) in PAEC. The assay is classed as cell-based, ovine. Conditions: PMA. The method, then:
as §1
Superoxide levels were estimated by electron paramagnetic resonance (EPR) assay using the spin-trap compound 1-hydroxy-3-methoxycarbonyl-2,2,5,5-tetramethylpyrrolidine HCl (CMH, Axxora) as described previously. Superoxide in PAEC was trapped by incubating PAEC with 20 μl of CMH stock solution (20 mg/ml) for 1 h, followed by trypsinization and centrifugation at 500 g. The cell pellet was suspended in 35 μl DPBS and loaded into a capillary tube which was then analyzed with a MiniScope MS200 EPR machine (Magnettech, Berlin, Germany). Pre-incubating cells or tissue with 100 μM ethylisothiourea (ETU, Sigma-Aldrich) for 30 min followed by incubation with CMH measured NOS-derived superoxide. EPR spectra were analyzed using ANALYSIS v.2.02 software (Magnettech). Differences between levels of samples incubated in the presence and absence of ETU were used to determine NOS-dependent superoxide generation.

The test system of a further assay is PAEC. The assay is described as follows: Mitochondrial bioenergetics (XF24 Analyzer, OCR) in PAEC. The assay is classed as cell-based, ovine. The note with it: PMA. The method, then:
as §1
The XF24 Analyzer (Seahorse Biosciences) and XF CELL MITO STRESS™ Test Kit (#101706-100; Seahorse Biosciences) were used for the mitochondrial bioenergetic analyses. The optimum number of cells/well was determined to be 75,000/0.32 cm^2. At the end of each study, the XF24 culture microplates were incubated in a CO2-free XF prep station at 37° C. for 45 min to allow temperature and pH calibration. Subsequently, each well was sequentially injected Oligomycin (1 μM final concentration), carbonyl cyanide 4-(trifluoromethoxy) phenylhydrazone (FCCP, 1 μM final concentration), and Rotenone+antimycin A (1 μM final concentration of each) and measured the oxygen consumption rate (OCR). These agents were used to determine basal mitochondrial respiration, reserve respiratory capacity and maximal respiratory capacity measurements in pmols/min of oxygen consumed.

In another assay the target is T1, TRPV4 (Mus musculus, UniProt Q9EPK8).
T1 construct: host or cells: mice (lung), cited studies
The note with it: mice treated with the TRPV4 antagonist; literature (Yin 2016); only protective if given preventatively; cited from earlier work.

T1 sequence (Q9EPK8 whole entry): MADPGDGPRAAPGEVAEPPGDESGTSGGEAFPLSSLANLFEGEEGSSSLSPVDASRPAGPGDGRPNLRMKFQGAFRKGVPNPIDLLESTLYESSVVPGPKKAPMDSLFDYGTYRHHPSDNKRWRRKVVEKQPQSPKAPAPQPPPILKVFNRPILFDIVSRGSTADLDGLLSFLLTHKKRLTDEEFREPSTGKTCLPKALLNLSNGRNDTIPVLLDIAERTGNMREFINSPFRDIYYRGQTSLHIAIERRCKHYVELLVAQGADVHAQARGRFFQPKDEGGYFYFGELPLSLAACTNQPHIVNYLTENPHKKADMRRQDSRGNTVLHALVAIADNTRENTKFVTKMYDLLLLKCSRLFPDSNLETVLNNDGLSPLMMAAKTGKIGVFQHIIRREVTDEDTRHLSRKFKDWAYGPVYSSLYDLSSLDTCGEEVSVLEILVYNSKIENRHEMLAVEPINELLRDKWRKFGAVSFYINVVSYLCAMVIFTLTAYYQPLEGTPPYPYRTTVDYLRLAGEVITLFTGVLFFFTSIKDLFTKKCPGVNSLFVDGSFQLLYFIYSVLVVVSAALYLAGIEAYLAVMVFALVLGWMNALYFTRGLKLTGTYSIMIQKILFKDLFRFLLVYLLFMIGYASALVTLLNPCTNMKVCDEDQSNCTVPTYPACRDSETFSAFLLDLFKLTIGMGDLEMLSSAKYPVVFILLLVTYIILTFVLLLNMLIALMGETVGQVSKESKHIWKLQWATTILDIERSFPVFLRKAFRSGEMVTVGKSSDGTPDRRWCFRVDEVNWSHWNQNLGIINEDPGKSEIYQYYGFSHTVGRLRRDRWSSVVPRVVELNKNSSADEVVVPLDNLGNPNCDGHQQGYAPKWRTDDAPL

For the molecule `CCCCCCCCCCCCCC(=O)O[C@@H]1[C@@H](C)[C@@]2(O)[C@@H](C=C(CO)C[C@]3(O)C(=O)C(C)=C[C@@H]23)[C@@H]2C(C)(C)[C@]12OC(C)=O` [PMA, Phorbol 12-myristate 13-acetate], the pT495-eNOS levels result in assay [1] is “increases in pT95-eNOS levels”. Besides, the “mitochondrial redistribution of eNOS” value in assay [2] is on record as “induced the mitochondrial redistribution of eNOS”. Further, the “eNOS uncoupling (NOS derived superoxide)” value in the assay with NOS-derived superoxide was “eNOS uncoupling”. In addition, the “mitochondrial bioenergetics (OCR, reserve and maximal respiratory capacities)” value in the assay on PAEC is reported as “disruption of mitochondrial bioenergetics”.

As for `O=C(NC1(c2ccccc2)CC1)c1c(CN2CCC(N3CCCCC3)CC2)c(-c2cccc(C(F)(F)F)c2)nc2cc(Br)ccc12` [GSK2193874], on TRPV4, the “protection against acid-induced ALI” value was “protected against acid-induced ALI”.
